Results on 18 compounds are retold here after ChEMBL document CHEMBL1777705, “Naphthol derivatives as TRPV1 inhibitors for the treatment of urinary incontinence” (Bioorg Med Chem Lett, 2011).

≈ marks a conversion by molar mass, not a printed value.

In data set [1] the target is Transient receptor potential cation channel subfamily V member 1 (Rattus norvegicus, UniProt O35433). The data set can be described thus: Antagonist activity at rat TRPV1 expressed in CHO cells co-expressing aequorin and CRE-luciferase reporter gene assessed as inhibition of capsaicin-induced calcium flux. The class given is functional, cell-based.
The target in data set [2] is Transient receptor potential cation channel subfamily V member 1 (Homo sapiens, UniProt Q8NER1). Description: Antagonist activity at human TRPV1 expressed in CHO cells co-expressing aequorin and CRE-luciferase reporter gene assessed as inhibition of capsaicin-induced calcium flux. The class given is functional, cell-based. Background: A reporter such as luciferase makes a cellular process visible.

Data set [3] has as its system Rattus norvegicus. Description: Inhibition of capsaicin-induced micturition frequency in Sprague-Dawley rat overactive bladder model at 3 mg/kg, iv relative to control. The class given is functional.
Data set [4] has as its system Rattus norvegicus. The data set can be described thus: Dose normalized AUC in po dosed rat. The data set is classed as ADME, organism-based. The settings on record: in vivo.
For data set [5], the system named is Rattus norvegicus. Description: Inhibition of capsaicin-induced micturition frequency in Sprague-Dawley rat overactive bladder model at 10 mg/kg, iv relative to control. The data set is classed as functional.
In data set [6] the test system is Rattus norvegicus. Description: Inhibition of cyclophosphamide-induced voiding frequency in iv dosed Sprague-Dawley rat cystitis model. The data set is classed as functional, organism-based.
A short description of data set [7]: Solubility of the compound. The class given is physicochemical.
The test system of data set [8] is Rattus norvegicus. Description: Inhibition of cyclophosphamide-induced bladder capacity in iv dosed Sprague-Dawley rat cystitis model. The class given is functional, organism-based.
Data set [9] in a line: Oral bioavailability in Sprague-Dawley rat. The class given is ADME, organism-based. The note with it: in vivo.

Transient receptor potential cation channel subfamily V member 1 (Homo sapiens, UniProt Q8NER1), sequence (Q8NER1 whole entry): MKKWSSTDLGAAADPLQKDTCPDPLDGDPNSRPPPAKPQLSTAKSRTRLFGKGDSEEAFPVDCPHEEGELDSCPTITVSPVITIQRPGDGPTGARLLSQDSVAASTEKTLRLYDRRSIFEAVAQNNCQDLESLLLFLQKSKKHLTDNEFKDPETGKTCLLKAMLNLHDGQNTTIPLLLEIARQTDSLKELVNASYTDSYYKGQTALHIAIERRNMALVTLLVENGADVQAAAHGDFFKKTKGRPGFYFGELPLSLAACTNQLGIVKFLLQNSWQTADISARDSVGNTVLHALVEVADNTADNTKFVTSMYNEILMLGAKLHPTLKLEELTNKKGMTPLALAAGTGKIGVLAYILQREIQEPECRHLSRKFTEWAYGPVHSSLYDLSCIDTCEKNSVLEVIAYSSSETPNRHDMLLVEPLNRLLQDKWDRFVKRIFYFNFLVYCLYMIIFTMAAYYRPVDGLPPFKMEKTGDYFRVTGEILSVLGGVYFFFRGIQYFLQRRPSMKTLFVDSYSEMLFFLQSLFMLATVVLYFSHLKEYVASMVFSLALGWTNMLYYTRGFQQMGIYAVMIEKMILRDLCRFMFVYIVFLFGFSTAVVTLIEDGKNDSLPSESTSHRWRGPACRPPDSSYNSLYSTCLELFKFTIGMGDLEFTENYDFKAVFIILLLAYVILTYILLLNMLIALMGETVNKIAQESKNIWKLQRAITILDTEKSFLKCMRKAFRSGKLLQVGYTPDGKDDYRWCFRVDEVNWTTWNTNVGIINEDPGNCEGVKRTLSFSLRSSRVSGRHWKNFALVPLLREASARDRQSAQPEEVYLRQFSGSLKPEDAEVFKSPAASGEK
Transient receptor potential cation channel subfamily V member 1 (Rattus norvegicus, UniProt O35433), sequence (O35433 whole entry): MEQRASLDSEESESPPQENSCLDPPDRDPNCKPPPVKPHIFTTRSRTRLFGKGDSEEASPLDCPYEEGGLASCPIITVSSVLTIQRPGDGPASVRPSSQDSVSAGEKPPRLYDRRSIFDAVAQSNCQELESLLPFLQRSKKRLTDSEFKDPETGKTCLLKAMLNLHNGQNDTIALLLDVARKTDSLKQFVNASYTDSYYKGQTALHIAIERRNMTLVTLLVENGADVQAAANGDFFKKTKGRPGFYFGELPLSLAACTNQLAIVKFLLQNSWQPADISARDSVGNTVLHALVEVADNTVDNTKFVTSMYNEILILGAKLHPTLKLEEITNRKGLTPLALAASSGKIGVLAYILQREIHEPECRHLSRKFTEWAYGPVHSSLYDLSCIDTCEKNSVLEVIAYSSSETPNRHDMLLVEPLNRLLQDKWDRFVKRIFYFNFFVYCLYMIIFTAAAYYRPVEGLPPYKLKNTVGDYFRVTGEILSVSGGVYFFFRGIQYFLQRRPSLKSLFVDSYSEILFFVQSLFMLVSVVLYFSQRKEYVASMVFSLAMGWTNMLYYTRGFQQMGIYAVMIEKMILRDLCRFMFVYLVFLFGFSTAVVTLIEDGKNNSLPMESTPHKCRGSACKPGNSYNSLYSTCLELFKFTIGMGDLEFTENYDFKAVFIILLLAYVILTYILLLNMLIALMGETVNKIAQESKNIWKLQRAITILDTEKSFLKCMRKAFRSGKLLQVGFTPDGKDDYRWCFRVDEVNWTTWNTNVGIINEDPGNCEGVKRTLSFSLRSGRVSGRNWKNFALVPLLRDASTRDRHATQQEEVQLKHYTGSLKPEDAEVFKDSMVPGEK

Broadly, the IC50 is the midpoint of a concentration-inhibition curve. Turning to `CCOC(=O)c1cccc(NC(=O)Nc2cccc3ccc(O)cc23)c1`, the figures for the IC50 in data set [1] and in data set [2] were 1.6 nM and 1.7 nM, respectively.

On to `O=C(Nc1cccc(C(F)(F)F)c1)Nc1cccc2ccc(O)cc12`, for which the IC50 in data set [1] is 4.5 nM; in [2], 3.5 nM.

Consider `O=C(Nc1ccccc1C(F)(F)F)Nc1cccc2ccc(O)cc12`, for which the IC50 is 64 nM in data set [1] and 87 nM in data set [2].

In general, inhibition in vivo refers to the share of the control response that was lost under treatment. Read a high inhibition in vivo as strong suppression. Usually AUC stands for concentration integrated over time. Read a high AUC as high exposure. With `O=C(Nc1ccc(Cl)c(C(F)(F)F)c1)Nc1c(Cl)c(Br)cc2ccc(O)cc12`, in the data set on Rattus norvegicus [3], the inhibition in vivo at 3 mg/kg came out at 88%. Also, the AUC in the data set on Rattus norvegicus [4] is 477 ng·h/mL.

On to `COc1cccc(NC(=O)Nc2cccc3ccc(O)cc23)c1`, for which the IC50 was determined as 8.6 nM in [1] and 8 nM in [2].

Regarding `O=C(Nc1cccc(C(=O)O)c1)Nc1cccc2ccc(O)cc12`, the IC50 in data set [1] stood at 270 nM; in data set [2] it was 520 nM.

`O=C(Nc1ccc(Cl)c(C(F)(F)F)c1)Nc1c(Br)c(Br)cc2ccc(O)cc12` showed an inhibition in vivo at 3 mg/kg in the data set on Rattus norvegicus [3] of 11%. In the data set with Rattus norvegicus [5], this compound displayed an inhibition in vivo at 10 mg/kg of 65%. The compound further displayed an AUC in the data set on Rattus norvegicus [4] of 596 ng·h/mL.

By solubility is commonly meant the concentration that dissolves in the medium under given conditions. The low end stands for little dissolved substance, the high end for much dissolved substance. Usually bioavailability stands for the share of a dose that reaches the circulation, judged against a reference dose that is usually intravenous. In the case of `O=C(Nc1ccc(Cl)c(C(F)(F)F)c1)Nc1c(Cl)c(Cl)cc2ccc(O)cc12`, the inhibition entry with Rattus norvegicus [6] and in the data set with Rattus norvegicus [8] was “Dose-dependent effect” in each case. The solubility in [7] is 0.03 µg/mL (≈ 0.0667 µM). Besides, in the data set with Rattus norvegicus [5], the inhibition in vivo at 10 mg/kg came out at 55%. Also, in the data set on Rattus norvegicus [4], the AUC was found to be 84 ng·h/mL. Further, the bioavailability in data set [9] amounted to 3%.

Turning to `COc1ccc2cccc(NC(=O)Nc3ccc(Cl)c(C(F)(F)F)c3)c2c1`, the AUC in the data set with Rattus norvegicus [4] came out at 114 ng·h/mL.

For `O=C(Nc1cccc([N+](=O)[O-])c1)Nc1cccc2ccc(O)cc12`, the results for the IC50 in [1] and in data set [2] were 14 nM and 7.5 nM, respectively.

As for `CC(=O)c1cccc(NC(=O)Nc2cccc3ccc(O)cc23)c1`, the IC50 in data set [1] was 39 nM; in [2] it was 28 nM.

For the compound `O=C(Nc1ccc(Cl)cc1Cl)Nc1cccc2ccc(O)cc12`, the IC50 in data set [1] was 16 nM; in [2], 12 nM.

Take `O=C(NCc1cccc(O)c1)Nc1cccc(F)c1`: the IC50 in data set [1] and in data set [2] was more than 1000 nM throughout.

In the case of `O=C(Cc1cccc(F)c1)Nc1cccc2ccc(O)cc12`, the IC50 in data set [2] is more than 1000 nM.

For `O=C(Cc1cccc2ccc(O)cc12)Nc1ccc(Cl)c(C(F)(F)F)c1`, in data set [2], the IC50 is 34 nM.

In the case of `CSc1cccc(NC(=O)Nc2cccc3ccc(O)cc23)c1`, the results for the IC50 in data set [1] and in [2] were 7.1 nM and 3.9 nM, respectively.

As for `O=C(Nc1ccc(C(F)(F)F)cc1)Nc1cccc2ccc(O)cc12`, the figures for the IC50 in [1] and in [2] were 4.9 nM and 5.4 nM, respectively.

`O=C(Nc1ccc(Cl)c(C(F)(F)F)c1)Nc1c(Cl)ccc2ccc(O)cc12` gave an AUC in the data set with Rattus norvegicus [4] of 3 ng·h/mL. Besides, the half-inhibitory concentration (IC50) in data set [1] was determined as 4.5 nM; in [2], 3.4 nM.
